According to the supplement of paper PMC10307832:

What was measured:
Experiment in all cases: relative viability (nuclei count vs DMSO), 5 days (fraction); higher = more cells survive
[1] = tested on: ChaGo-K-1
Procedure, shortened: (§1)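 Lung cancer cell lines in 1536-well plates were dosed by pin tool the day after seeding, either with one drug alone or with a fixed anchor-drug dose plus five library-drug doses (not always all listed) in √10 steps. After 5 days, cells were fixed and their nuclei stained in one step (final 0.05% Triton X-100, 1% formaldehyde, 1 ug/ml Hoechst), then counted on 4× images. Relative viability is the nuclei count in treated wells divided by that in vehicle wells. Values are medians of duplicate plates.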

[2] = tested on: NCI-H596
Procedure, shortened: as §1

[3] = tested on: ABC-1
Procedure, shortened: as §1

[4] = tested on: NCI-H1734
Procedure, shortened: as §1

[5] = tested on: NCI-H1755
Procedure, shortened: as §1

[6] = tested on: NCI-H2009
Procedure, shortened: as §1

[7] = tested on: CAL-12T
Procedure, shortened: as §1

[8] = tested on: NCI-H2126
Procedure, shortened: as §1

[9] = tested on: NCI-H322M
Procedure, shortened: as §1

[10] = tested on: NCI-H647
Procedure, shortened: as §1

[11] = tested on: LXF-289
Procedure, shortened: as §1

[12] = tested on: SW 900
Procedure, shortened: as §1

[13] = tested on: LK-2
Procedure, shortened: as §1

[14] = tested on: PC-14
Procedure, shortened: as §1

[15] = tested on: NCI-H2087
Procedure, shortened: as §1

[16] = tested on: NCI-H522
Procedure, shortened: as §1

[17] = tested on: EMC-BAC-2
Procedure, shortened: as §1

[18] = tested on: NCI-H2170
Procedure, shortened: as §1

[19] = tested on: NCI-H3122
Procedure, shortened: as §1

[20] = tested on: H3255
Procedure, shortened: as §1

[21] = tested on: NCI-H441
Procedure, shortened: as §1

[22] = tested on: NCI-H1651
Procedure, shortened: as §1

[23] = tested on: HOP-62
Procedure, shortened: as §1

[24] = tested on: 201T
Procedure, shortened: as §1

[25] = tested on: NCI-H1563
Procedure, shortened: as §1

Q: For `CCCCCCCCCCCC1=C(O)C(=O)C=C(O)C1=O` [Embelin] + Cc1nc(Nc2ncc(C(=O)Nc3c(C)cccc3Cl)s2)cc(N2CCN(CCO)CC2)n1 [Dasatinib] (partner 0.075 µM), which relative viability ([1]; first compound 0.08 µM) is on record?
A: The relative viability was 0.501.

Q: And the relative viability ([1]; first compound 0.8 µM)?
A: The relative viability was 0.576.

Q: And the relative viability ([1]; first compound 2.53 µM)?
A: The relative viability was 0.585.

Q: What about the relative viability ([1]; first compound 8 µM) of the same compound?
A: Its relative viability is 0.582.

Q: What about the relative viability ([2]; first compound 0.08 µM) of the same compound?
A: The relative viability was 0.739.

Q: And the relative viability ([2]; first compound 0.8 µM)?
A: Its relative viability is 0.739.

Q: What about the relative viability ([2]; first compound 2.53 µM) of the same compound?
A: The relative viability was 0.708.

Q: And the relative viability ([2]; first compound 8 µM)?
A: Its relative viability is 0.457.

Q: And the relative viability ([3]; first compound 0.08 µM)?
A: Its relative viability is 0.575.

Q: What about the relative viability ([3]; first compound 0.8 µM) of the same compound?
A: The relative viability was 0.657.

Q: What about the relative viability ([3]; first compound 2.53 µM) of the same compound?
A: The relative viability was 0.528.

Q: What about the relative viability ([3]; first compound 8 µM) of the same compound?
A: Its relative viability is 0.53.

Q: What about the relative viability ([4]; first compound 0.08 µM) of the same compound?
A: Its relative viability is 0.424.

Q: What about the relative viability ([4]; first compound 0.8 µM) of the same compound?
A: The relative viability was 0.53.

Q: What about the relative viability ([4]; first compound 2.53 µM) of the same compound?
A: The relative viability was 0.514.

Q: What about the relative viability ([4]; first compound 8 µM) of the same compound?
A: The relative viability was 0.419.

Q: And the relative viability ([5]; first compound 0.08 µM)?
A: The relative viability was 0.368.

Q: And the relative viability ([5]; first compound 0.8 µM)?
A: Its relative viability is 0.49.

Q: What about the relative viability ([5]; first compound 2.53 µM) of the same compound?
A: The relative viability was 0.379.

Q: What about the relative viability ([5]; first compound 8 µM) of the same compound?
A: The relative viability was 0.407.

Q: What about the relative viability ([6]; first compound 0.08 µM) of the same compound?
A: The relative viability was 0.342.

Q: What about the relative viability ([6]; first compound 0.8 µM) of the same compound?
A: The relative viability was 0.487.

Q: What about the relative viability ([6]; first compound 2.53 µM) of the same compound?
A: The relative viability was 0.243.

Q: What about the relative viability ([6]; first compound 8 µM) of the same compound?
A: The relative viability was 0.251.

Q: What about the relative viability ([7]; first compound 0.08 µM) of the same compound?
A: Its relative viability is 0.414.

Q: And the relative viability ([7]; first compound 0.8 µM)?
A: The relative viability was 0.522.

Q: What about the relative viability ([7]; first compound 2.53 µM) of the same compound?
A: The relative viability was 0.481.

Q: What about the relative viability ([7]; first compound 8 µM) of the same compound?
A: Its relative viability is 0.539.

Q: And the relative viability ([8]; first compound 0.08 µM)?
A: The relative viability was 0.615.

Q: And the relative viability ([8]; first compound 0.8 µM)?
A: The relative viability was 0.684.

Q: And the relative viability ([8]; first compound 2.53 µM)?
A: Its relative viability is 0.714.

Q: What about the relative viability ([8]; first compound 8 µM) of the same compound?
A: Its relative viability is 0.502.

Q: And the relative viability ([9]; first compound 0.08 µM)?
A: The relative viability was 0.26.

Q: What about the relative viability ([9]; first compound 0.8 µM) of the same compound?
A: The relative viability was 0.263.

Q: What about the relative viability ([9]; first compound 2.53 µM) of the same compound?
A: The relative viability was 0.261.

Q: And the relative viability ([9]; first compound 8 µM)?
A: The relative viability was 0.232.

Q: What about the relative viability ([10]; first compound 0.08 µM) of the same compound?
A: Its relative viability is 0.214.

Q: And the relative viability ([10]; first compound 0.8 µM)?
A: The relative viability was 0.242.

Q: What about the relative viability ([10]; first compound 2.53 µM) of the same compound?
A: Its relative viability is 0.123.

Q: And the relative viability ([10]; first compound 8 µM)?
A: The relative viability was 0.14.

Q: And the relative viability ([11]; first compound 0.08 µM)?
A: Its relative viability is 0.212.

Q: And the relative viability ([11]; first compound 0.8 µM)?
A: Its relative viability is 0.282.

Q: And the relative viability ([11]; first compound 2.53 µM)?
A: Its relative viability is 0.163.

Q: And the relative viability ([11]; first compound 8 µM)?
A: The relative viability was 0.222.

Q: And the relative viability ([12]; first compound 0.08 µM)?
A: The relative viability was 0.666.

Q: What about the relative viability ([12]; first compound 0.8 µM) of the same compound?
A: The relative viability was 0.571.

Q: What about the relative viability ([12]; first compound 2.53 µM) of the same compound?
A: The relative viability was 0.546.

Q: What about the relative viability ([12]; first compound 8 µM) of the same compound?
A: Its relative viability is 0.57.

Q: What about the relative viability ([13]; first compound 0.08 µM) of the same compound?
A: The relative viability was 0.26.

Q: What about the relative viability ([13]; first compound 0.8 µM) of the same compound?
A: Its relative viability is 0.427.

Q: What about the relative viability ([13]; first compound 2.53 µM) of the same compound?
A: The relative viability was 0.304.

Q: And the relative viability ([13]; first compound 8 µM)?
A: The relative viability was 0.237.

Q: And the relative viability ([14]; first compound 0.08 µM)?
A: The relative viability was 0.257.

Q: And the relative viability ([14]; first compound 0.8 µM)?
A: Its relative viability is 0.396.

Q: And the relative viability ([14]; first compound 2.53 µM)?
A: Its relative viability is 0.246.

Q: And the relative viability ([14]; first compound 8 µM)?
A: Its relative viability is 0.315.

Q: What about the relative viability ([15]; first compound 0.08 µM) of the same compound?
A: The relative viability was 0.877.

Q: What about the relative viability ([15]; first compound 0.8 µM) of the same compound?
A: The relative viability was 1.19.

Q: What about the relative viability ([15]; first compound 2.53 µM) of the same compound?
A: The relative viability was 1.06.

Q: And the relative viability ([15]; first compound 8 µM)?
A: The relative viability was 0.913.

Q: What about the relative viability ([16]; first compound 0.08 µM) of the same compound?
A: The relative viability was 0.849.

Q: What about the relative viability ([16]; first compound 0.8 µM) of the same compound?
A: Its relative viability is 0.914.

Q: And the relative viability ([16]; first compound 2.53 µM)?
A: Its relative viability is 1.02.

Q: And the relative viability ([16]; first compound 8 µM)?
A: Its relative viability is 0.859.

Q: What about the relative viability ([17]; first compound 0.08 µM) of the same compound?
A: Its relative viability is 0.304.

Q: And the relative viability ([17]; first compound 0.8 µM)?
A: The relative viability was 0.46.

Q: And the relative viability ([17]; first compound 2.53 µM)?
A: Its relative viability is 0.341.

Q: What about the relative viability ([17]; first compound 8 µM) of the same compound?
A: The relative viability was 0.291.

Q: What about the relative viability ([18]; first compound 0.08 µM) of the same compound?
A: Its relative viability is 0.649.

Q: What about the relative viability ([18]; first compound 0.8 µM) of the same compound?
A: The relative viability was 0.806.

Q: What about the relative viability ([18]; first compound 2.53 µM) of the same compound?
A: Its relative viability is 0.694.

Q: And the relative viability ([18]; first compound 8 µM)?
A: Its relative viability is 0.533.

Q: And the relative viability ([19]; first compound 0.08 µM)?
A: Its relative viability is 0.823.

Q: And the relative viability ([19]; first compound 0.8 µM)?
A: Its relative viability is 0.922.

Q: What about the relative viability ([19]; first compound 2.53 µM) of the same compound?
A: The relative viability was 0.853.

Q: And the relative viability ([19]; first compound 8 µM)?
A: The relative viability was 0.829.

Q: What about the relative viability ([20]; first compound 0.08 µM) of the same compound?
A: Its relative viability is 0.355.

Q: What about the relative viability ([20]; first compound 0.8 µM) of the same compound?
A: Its relative viability is 0.378.

Q: And the relative viability ([20]; first compound 2.53 µM)?
A: Its relative viability is 0.298.

Q: What about the relative viability ([20]; first compound 8 µM) of the same compound?
A: Its relative viability is 0.456.

Q: And the relative viability ([21]; first compound 0.08 µM)?
A: Its relative viability is 0.645.

Q: And the relative viability ([21]; first compound 0.8 µM)?
A: Its relative viability is 0.633.

Q: And the relative viability ([21]; first compound 2.53 µM)?
A: Its relative viability is 0.686.

Q: And the relative viability ([21]; first compound 8 µM)?
A: Its relative viability is 0.838.

Q: And the relative viability ([22]; first compound 0.08 µM)?
A: Its relative viability is 0.388.

Q: What about the relative viability ([22]; first compound 0.8 µM) of the same compound?
A: Its relative viability is 0.508.

Q: What about the relative viability ([22]; first compound 2.53 µM) of the same compound?
A: Its relative viability is 0.438.

Q: And the relative viability ([22]; first compound 8 µM)?
A: The relative viability was 0.335.

Q: And the relative viability ([23]; first compound 0.08 µM)?
A: Its relative viability is 0.66.

Q: What about the relative viability ([23]; first compound 0.8 µM) of the same compound?
A: Its relative viability is 0.776.

Q: And the relative viability ([23]; first compound 2.53 µM)?
A: The relative viability was 0.68.

Q: What about the relative viability ([23]; first compound 8 µM) of the same compound?
A: Its relative viability is 0.654.

Q: And the relative viability ([24]; first compound 0.08 µM)?
A: Its relative viability is 0.562.

Q: What about the relative viability ([24]; first compound 0.8 µM) of the same compound?
A: Its relative viability is 0.641.

Q: What about the relative viability ([24]; first compound 2.53 µM) of the same compound?
A: Its relative viability is 0.519.

Q: And the relative viability ([24]; first compound 8 µM)?
A: Its relative viability is 0.613.

Q: And the relative viability ([25]; first compound 0.08 µM)?
A: Its relative viability is 0.475.

Q: And the relative viability ([25]; first compound 0.8 µM)?
A: Its relative viability is 0.447.

Q: What about the relative viability ([25]; first compound 2.53 µM) of the same compound?
A: Its relative viability is 0.405.

Q: What about the relative viability ([25]; first compound 8 µM) of the same compound?
A: The relative viability was 0.387.
